Laboratory results taken from patent publication US20190152946A1, “Novel Compounds” (GlaxoSmithKline Intellectual Property Development Limited, priority 2016, published 2019).

Key:
RPS6KA1 = target: T1, RPS6KA1 (Homo sapiens, UniProt Q15418); experiment: Expression proteomics in THP-1 cells, RPS6KA1 level; type: cell-based; conditions: RPS6KA1 protein log2 fold change, 24 h, 1.0 μM
T1 construct: endogenous in cells; host or cells: THP-1
Procedure: (§1) THP-1 cells were seeded at a concentration of 3×10^6 cells in T175 flasks with 60 mL growth medium (RPM11640+10% FBS). […] of a 10× compound solution prepared in growth medium (DMSO), IAP PROTAC) was added and the cells were treated for the indicated time points (6 or 24 h) at 37° C., 5% CO2. For harvesting the cells were collected into falcon tubes on ice, centrifuged and washed twice in cold PBS (Life technologies). After the last washing step the supernatant was removed and the pellets were snap-frozen in liquid N2 and stored at −80° C. and lysed in 2% SDS for 3 min at 95° C. in a thermomixer (Thermo Fisher Scientific), followed by digestion of DNA with Benzonase at 37° C. for 1.5 h. Lysate was cleared by centrifugation an protein concentration in supernatant was determined by BCA assay.
(§2) Leukemia 25, 89-100 (2011).
(§3) Samples were dried in vacuo and resuspended in 0.05% trifluoroacetic acid in water. […]
(§4) Reporter ion intensities were read from raw data and multiplied with ion accumulation times (the unit is milliseconds) so as to yield a measure proportional to the number of ions;
(§5) Nat Biotech 29, 255-265 (2011). this measure is referred to as ion area Savitski, M. M. et al. Delayed Fragmentation and Optimized Isolation Width Settings for Improvement of Protein Identification and Accuracy of Isobaric Mass Tag Quantification on Orbitrap-Type Mass Spectrometers. […]

GAK = target: T2, GAK (Homo sapiens, UniProt O14976); experiment: Expression proteomics in THP-1 cells, GAK level; type: cell-based; conditions: GAK protein log2 fold change, 24 h, 1.0 μM
T2 construct: endogenous in cells; host or cells: THP-1
T2 sequence (O14976 1-1311): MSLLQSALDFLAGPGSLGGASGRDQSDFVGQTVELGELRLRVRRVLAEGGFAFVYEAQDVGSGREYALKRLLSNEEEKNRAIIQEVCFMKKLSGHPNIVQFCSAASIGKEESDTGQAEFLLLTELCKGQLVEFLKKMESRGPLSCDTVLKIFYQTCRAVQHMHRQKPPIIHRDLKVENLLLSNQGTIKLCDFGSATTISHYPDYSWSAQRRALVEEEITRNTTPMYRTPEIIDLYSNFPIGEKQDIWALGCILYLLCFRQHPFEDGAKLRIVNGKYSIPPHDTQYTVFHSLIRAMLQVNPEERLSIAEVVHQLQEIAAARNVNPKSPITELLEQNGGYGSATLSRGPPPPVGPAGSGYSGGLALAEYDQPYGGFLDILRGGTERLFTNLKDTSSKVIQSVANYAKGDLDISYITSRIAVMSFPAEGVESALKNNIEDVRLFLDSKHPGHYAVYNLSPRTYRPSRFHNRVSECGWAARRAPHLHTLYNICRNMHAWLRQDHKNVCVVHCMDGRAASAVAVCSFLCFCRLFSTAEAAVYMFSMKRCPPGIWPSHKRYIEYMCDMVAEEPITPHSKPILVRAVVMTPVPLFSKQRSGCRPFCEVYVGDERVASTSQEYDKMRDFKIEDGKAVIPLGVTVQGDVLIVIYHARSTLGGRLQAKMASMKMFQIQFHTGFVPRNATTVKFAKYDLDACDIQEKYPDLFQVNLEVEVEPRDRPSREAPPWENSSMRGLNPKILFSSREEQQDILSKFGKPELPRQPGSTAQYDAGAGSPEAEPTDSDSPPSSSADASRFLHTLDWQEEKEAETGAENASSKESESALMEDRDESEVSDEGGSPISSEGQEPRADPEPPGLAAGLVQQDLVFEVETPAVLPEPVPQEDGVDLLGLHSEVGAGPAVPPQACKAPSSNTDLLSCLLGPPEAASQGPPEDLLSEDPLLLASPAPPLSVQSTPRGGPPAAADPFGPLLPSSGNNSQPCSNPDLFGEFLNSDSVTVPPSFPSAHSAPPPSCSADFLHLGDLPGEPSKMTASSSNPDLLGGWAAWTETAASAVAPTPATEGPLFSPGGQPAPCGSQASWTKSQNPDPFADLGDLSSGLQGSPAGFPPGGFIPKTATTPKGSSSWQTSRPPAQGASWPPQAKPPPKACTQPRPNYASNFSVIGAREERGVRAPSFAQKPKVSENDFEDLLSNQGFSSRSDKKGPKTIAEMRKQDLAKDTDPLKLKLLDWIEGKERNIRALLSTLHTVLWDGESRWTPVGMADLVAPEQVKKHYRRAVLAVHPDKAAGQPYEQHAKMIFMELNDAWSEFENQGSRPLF
Procedure: as §1, §2, §3, §4, §5

T1 sequence (Q15418 whole entry): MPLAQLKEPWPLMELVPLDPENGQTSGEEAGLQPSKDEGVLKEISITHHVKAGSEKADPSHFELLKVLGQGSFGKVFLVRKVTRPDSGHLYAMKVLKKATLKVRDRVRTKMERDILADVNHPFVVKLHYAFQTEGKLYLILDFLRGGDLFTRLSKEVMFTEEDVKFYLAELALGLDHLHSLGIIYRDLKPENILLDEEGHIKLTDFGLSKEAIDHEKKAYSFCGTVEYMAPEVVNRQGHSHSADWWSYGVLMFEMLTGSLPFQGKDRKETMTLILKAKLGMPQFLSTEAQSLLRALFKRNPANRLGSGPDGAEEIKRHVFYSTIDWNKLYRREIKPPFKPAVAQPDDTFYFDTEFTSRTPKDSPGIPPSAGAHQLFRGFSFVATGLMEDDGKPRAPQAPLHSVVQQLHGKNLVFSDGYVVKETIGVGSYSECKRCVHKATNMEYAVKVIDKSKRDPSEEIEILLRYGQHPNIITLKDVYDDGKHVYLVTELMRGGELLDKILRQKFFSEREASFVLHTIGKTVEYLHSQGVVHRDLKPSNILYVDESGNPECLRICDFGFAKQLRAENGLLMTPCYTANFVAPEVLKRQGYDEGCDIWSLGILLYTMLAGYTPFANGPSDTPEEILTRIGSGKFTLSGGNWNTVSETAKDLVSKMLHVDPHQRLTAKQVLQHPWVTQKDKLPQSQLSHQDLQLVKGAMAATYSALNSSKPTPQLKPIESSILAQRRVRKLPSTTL

## CNC(=O)c1ccccc1Nc1nc(Nc2ccc(N3CCN(CCOCCOCCOCCOc4ccc5c(c4)CN(C(=O)[C@@H](NC(=O)[C@H](C)NC)C(C)(C)C)[C@H](C(=O)N[C@@H]4CCCc6ccccc64)C5)CC3)cc2)ncc1Cl [IAP, (S)-7-(2-(2-(2-(2-(4-(4-((5-Chloro-4-((2-(methylcarbamoyl)phenyl)amino)pyrimidin-2-yl)amino)phenyl)piperazin-1-yl)ethoxy)ethoxy)ethoxy)ethoxy)-2-((S)-3,3-dimethyl-2-((S)-2-(methylamino)propanamido)butanoyl)-N-((R)-1,2,3,4-tetrahydronaphthalen-1-yl)-1,2,3,4-tetrahydroisoquinoline-3-carboxamide]
RPS6KA1; replicate n1
  log2fc_IAP_24 h_1.0 μM_n1: −1.21
RPS6KA1; replicate n2
  log2fc_IAP_24 h_1.0 μM_n2: −1.24
GAK; replicate n1
  log2fc_IAP_24 h_1.0 μM_n1: −2.02
GAK; replicate n2
  log2fc_IAP_24 h_1.0 μM_n2: −2.39
